{
  "source": "patent US8530453B2",
  "about": "“Compounds and methods for the treatment of pain and other diseases” (Aquilus Pharmaceuticals, Inc., priority 2009, dated 2013)",
  "key": {"[1]": {"assay": "In-vitro mouse microsomal stability", "assay_type": "in vitro ADME", "conditions": "compound 1 microMolar, at T = 60 minutes; for % Mean Remaining Parent with NADPH (%): mouse microsomes 0.3 mg/mL, 37 C; for % Mean Remaining Parent without NADPH (%): mouse microsomes, control omitting NADPH", "method": "Human and mouse microsomal stability was determined for select compounds following the method of Houston (Houston, J B; Biochem. Pharmacol. 47, (1994), 1469).\n1 μM concentration of compound and seperate human and mouse microsomes (0.3 mg/mL, BD bioscience) were used in the in-vitro assay. To ensure proper energy supply for microsomal degradation of compound, an energy regenerating system comprised of 100 mM potassium phosphate, 2 mM NADPH, 3 mM MgCl2, pH=7.4. and the microsomal protein is added to each sample and the resulting suspension is then incubated in duplicate for 60 min at 37° C. in a rotary shaker. A control is run for each test agent in duplicate omitting NADPH to detect NADPH-free degradation. At T=0 and T=60 min., an aliquot is removed from each experimental and control reaction and then mixed with an equal volume of ice-cold Stop Solution (consisting of 0.3% acetic acid in acetonitrile containing haloperidol and diclofenac as internal standards). Stopped reactions are then incubated for at least ten minutes at −20° C., and an additional volume of water is then be added. The samples are then centrifuged to remove precipitated protein, and the supernatants are then analyzed by LC-MS/MS to determine the percentage of compound remaining. The LC-MS/MS system used was an Agilent 6410 mass spectrometer coupled with an Agilent 1200 HPLC and a CTC PAL chilled autosampler, all controlled by MassHunter software (Agilent), or an ABI2000 mass spectrometer coupled with an Agilent 1100 HPLC and a CTC PAL chilled autosampler, all controlled by Analyst software (ABI). After separation on a C18 reverse phase HPLC column (Agilent, Waters, or equivalent) using an acetonitrile-water gradient system, peaks were analyzed by mass spectrometry (MS) using ESI ionization in MRM mode."}, "[2]": {"system": "spinal nerve ligation (SNL) mouse model, mechanical allodynia", "assay": "Intrathecal (i.t.) administration in the SNL mouse model of pain, von Frey tactile allodynia test", "assay_type": "in vivo", "conditions": "for 50% paw withdrawal threshold, mean, Day (-2) Pre-operative Baseline: group baseline prior to SNL injury, before treatment, FVB male mice", "text": "(§1) To measure the neuropathic pain inhibiting affects of the MMP inhibitors of the present invention, the spinal nerve ligation (SNL) mouse model was run on a select number of compounds. This model which began with the work of Bennet and coworkers (Bennet, G. J. et al. Pain, 33, (1988), 87-107) and was optimized by Kim and Chung (Kim, S. H.; Chung, J. M. Pain, 50, (1992), 355-363) entails first, under magnification, the removal of one-third of the transverse process and then identifying and then dissecting free the L5 spinal nerve from the adjacent L4 spinal nerve in the mouse. The L5 spinal nerve is then tightly ligated using 6.0 silk suture. The nerve injury leads to hyperalgesia which manifests itself by enhanced responses to mechanical, heat and/or cooling stimuli. In this case, mechanical hyperalgesia is tested via Von Frey monofilaments in which filaments of varying thicknesses and bending force are individually applied to the plantar surface of the foot of the mouse. The threshold force necessary for paw withdrawal decreases dramatically after the nerve surgery. Potent pain inhibitors will reverse this affect resulting in greater force needing to be applied to cause the rodent paw to withdrawal.\nFollowing preoperative baseline (Day −2) paw threshold measurement, FVB male mice were subjected to SNL injury (Day −1). […] Over the course of the study, paw withdrawal threshold of these animals was measured in response to mechanical stimulation using the von Frey Monofilament Test. […]\n(§2) Tactile Allodynia Test. Mechanical allodynia was measured using the calibrated von Frey filaments (Semmes-Weinstein monofilaments; Stoelting, Wood Dale, Ill., U.S.A.). […] The Fifty percent paw withdrawal threshold response was determined by sequentially increasing or decreasing the stimulus strength according to the “up-down method” of Dixon (Annual Review Pharmacology Toxicology, 20, (1980), 441-462). […]"}, "[3]": {"system": "spinal nerve ligation (SNL) mouse model, mechanical allodynia", "assay": "Intraperitoneal (i.p.) administration in the SNL mouse model of pain, von Frey tactile allodynia test", "assay_type": "in vivo", "text": "as §1, with “The threshold force necessary for paw withdrawal decreases dramatically after the nerve surgery. Potent pain inhibitors will reverse this affect resulting in greater force needing to be applied to cause the rodent paw to withdrawal.” left out\nas §2"}, "[4]": {"target": "Catalytic domain of MMP-9 (human recombinant) (Homo sapiens, UniProt P14780)", "sequence (P14780 107-444 limits assumed)": "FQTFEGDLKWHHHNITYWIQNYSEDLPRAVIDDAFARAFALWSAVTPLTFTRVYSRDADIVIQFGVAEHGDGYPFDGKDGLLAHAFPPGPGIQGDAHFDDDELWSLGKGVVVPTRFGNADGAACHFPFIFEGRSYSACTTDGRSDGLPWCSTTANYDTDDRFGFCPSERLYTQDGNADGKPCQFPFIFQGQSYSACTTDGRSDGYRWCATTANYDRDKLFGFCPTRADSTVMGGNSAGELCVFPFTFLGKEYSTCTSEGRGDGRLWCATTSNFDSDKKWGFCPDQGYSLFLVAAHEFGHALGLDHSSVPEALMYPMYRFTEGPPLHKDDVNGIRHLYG", "assay": "biochemical", "conditions": "read-out: Average Percent Inhibition (MMP-9)", "protocol": "A concentration of MMP inhibitor of the present invention was tested (1 microMolar) in duplicate runs. […] The mixture of enzyme and compound in assay buffer was then thoroughly mixed and incubated for 60 minutes at 37° C. Upon the completion of incubation, the assay was started by the addition of 10 μM of fluorescent substrate DNP-Pro-Cha-Gly-Cys(Me)-His-Ala-Lys(n-Me-Abz)-NH2 [SEQ ID NO: 1][Cha=β-cyclohexylalanyl; Abz=2-aminobenzoyl(anthraniloyl)] (Kd˜7 microMolar). The fluorescent product, DnpPChaG, was then measured at excitation of 365 nm and emission 450 nm by an automatic plate multireader at 37° C."}, "mechanical nociception": {"system": "mechanical nociception", "conditions": "in vivo; cited from earlier work"}, "humans": {"system": "humans", "conditions": "clinical; cited from earlier work"}, "[5]": {"system": "chronic constriction injury (CCI)-mouse model", "conditions": "epineural daily injections, after the third day; cited from earlier work"}},
  "data": [
    {"smiles": "Cc1ccc(C#Cc2ccc(S(=O)(=O)N[C@H](Cc3c[nH]c4ccccc34)C(=O)O)s2)cc1", "note": "[Compound 5, (R)-3-(1H-Indol-3-yl)-2-(5-p-tolylethynyl-thiophene-2-sulfonylamino)-propionic acid]", "values": [
      {"measurement": "% Mean Remaining Parent with NADPH (%)", "setting": "[1]", "result": 83, "unit": "%"},
      {"measurement": "% Mean Remaining Parent without NADPH (%)", "setting": "[1]", "result": 88, "unit": "%"},
      {"measurement": "50% paw withdrawal threshold, mean, Day (-2) Pre-operative Baseline", "setting": "[2]", "result": 1.265, "unit": "g"}
    ]},
    {"smiles": "[2H]C([2H])([2H])c1ccc(C#Cc2ccc(S(=O)(=O)N[C@H](Cc3c[nH]c4ccccc34)C(=O)O)s2)cc1", "note": "[Compound 10, (R)-3-(1H-Indol-3-yl)-2-[5-(4-trideuteromethyl-phenylethynyl)-thiophene-2-sulfonylamino]-propionic acid-(D3, 98%)]", "values": [
      {"measurement": "% Mean Remaining Parent with NADPH (%)", "setting": "[1]", "result": 85, "unit": "%"},
      {"measurement": "% Mean Remaining Parent without NADPH (%)", "setting": "[1]", "result": 91, "unit": "%"},
      {"measurement": "50% paw withdrawal threshold, mean, Day (-2) Pre-operative Baseline", "setting": "[2]", "result": 1.268, "unit": "g"},
      {"measurement": "Reversal of allodynia (in words)", "setting": "[2]; i.t., as compared to vehicle and compound #5", "result": "almost complete reversal of allodynia"},
      {"measurement": "Reversal of mechanical allodynia (in words)", "setting": "[3]; i.p. approx. 3.3 mg/Kg daily", "result": "complete reversal of mechanical alodynia by day 5"},
      {"measurement": "Duration of effect after last injection (in words)", "setting": "[3]; i.p., 48 hours (day 6) from the last injection (day 4)", "result": "rather prolonged effect"},
      {"measurement": "inhibition at 1 µM", "setting": "[4]", "result": 78, "unit": "%"}
    ]},
    {"smiles": "CNC(=O)[C@H](Cc1c[nH]c2ccccc12)NC(=O)[C@@H](CC(=O)NO)CC(C)C", "note": "[GM6001]", "values": [
      {"measurement": "Effect on mechanical nociception (in words)", "setting": "mechanical nociception", "result": "found to attenuate mechanical nociception"}
    ]},
    {"smiles": "CNC(=O)[C@@H](NC(=O)[C@H](CC(C)C)[C@H](O)C(=O)NO)C(C)(C)C", "note": "[Marimastat]", "values": [
      {"measurement": "Toxicities in humans (in words)", "setting": "humans", "result": "time-dependent and dose-dependent musculoskeletal toxicities (arthralgia, myalgia, tendinitis)"}
    ]},
    {"smiles": "CC(C)C[C@H](CC(=O)NO)C(=O)N[C@@H](Cc1ccc2ccccc2c1)C(=O)N[C@@H](C)C(N)=O", "note": "[TAPI-0]", "values": [
      {"measurement": "Effect on mechanical allodynia and thermal hyperalgesia (in words)", "setting": "[5]", "result": "able to block both mechanical allodynia and thermal hyperalgesia"}
    ]}
  ]
}
